The results in this text go back to ChEMBL document CHEMBL4321884, “Human Serum Albumin Binding in a Vial: A Novel UV-pH Titration Method To Assist Drug Design” (J Med Chem, 2020).

The structures appear in SMILES notation.

Series [1] can be described thus: Protein binding in plasma (unknown origin). The conditions noted are these: read-out: PPB (converted). It counts as ADME, cell-free.
Series [2] addresses T1, Albumin (Homo sapiens, UniProt P02768). The experiment in a line: Protein binding in immobilized human serum albumin by HPLC analysis. It counts as ADME. The conditions noted are these: read-out: PB (converted).
The target in series [3] is T1, Albumin. The experiment in a line: Protein binding in human serum albumin after 4.5 hrs by LC-MS based rapid equilibrium dialysis method. The class given is ADME. The conditions noted are these: read-out: PB (converted). For orientation: Equilibrium dialysis compares concentrations on both sides of a semipermeable membrane.
Series [4] addresses T1, Albumin. The experiment in a line: Protein binding in immobilized human serum albumin after 15 mins by HPLC analysis. It counts as ADME. The conditions noted are these: read-out: PB (converted).

T1 sequence (P02768 whole entry): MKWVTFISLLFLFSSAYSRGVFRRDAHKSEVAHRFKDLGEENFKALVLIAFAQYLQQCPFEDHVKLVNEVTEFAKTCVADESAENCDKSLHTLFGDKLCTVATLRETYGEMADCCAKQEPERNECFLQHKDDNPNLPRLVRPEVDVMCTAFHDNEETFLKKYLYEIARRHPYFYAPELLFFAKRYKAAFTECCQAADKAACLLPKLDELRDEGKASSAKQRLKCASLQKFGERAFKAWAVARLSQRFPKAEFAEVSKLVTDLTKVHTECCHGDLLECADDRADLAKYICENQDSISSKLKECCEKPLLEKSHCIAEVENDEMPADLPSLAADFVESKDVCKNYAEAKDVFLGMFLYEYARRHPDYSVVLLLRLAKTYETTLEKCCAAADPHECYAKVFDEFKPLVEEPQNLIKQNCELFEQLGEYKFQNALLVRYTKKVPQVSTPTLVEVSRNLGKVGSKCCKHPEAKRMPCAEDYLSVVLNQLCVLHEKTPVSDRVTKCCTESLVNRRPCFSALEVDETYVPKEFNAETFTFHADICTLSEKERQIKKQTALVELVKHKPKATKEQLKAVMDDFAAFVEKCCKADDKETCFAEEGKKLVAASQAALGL

On to `CC1=C(CC(=O)O)c2cc(F)ccc2/C1=C\c1ccc([S+](C)[O-])cc1` (stereo not drawn), for which the fraction unbound in series [1] was 0.06 to 0.065. On to `CCN(CC)CCC[C@H](C)Nc1ccnc2cc(Cl)ccc12`, for which, in series [2], the fraction unbound was 0.495. On to `CCCCC1(C)C(=O)N(c2ccccc2)N(c2ccccc2)C1=O`, for which the fraction unbound at 4.5 h in series [3] was 0.359. In series [2], the fraction unbound is 0.15. For `CCCCc1c(OC)n(-c2ccccc2)n(-c2ccccc2)c1=O`, in that order: 0.071 and 0.071. Turning to `CCOC(=O)c1cc(-c2ccc(F)cc2F)ccc1O`, in series [2], the fraction unbound was 0.025.

`COC1=C(C(=O)Nc2ncc(C)s2)N(C)S(=O)(=O)c2ccccc21`: the fraction unbound at 4.5 h in series [3] is 0.341. The fraction unbound in series [2] is 0.158. For the molecule `CO/N=C(\C(=O)N[C@@H]1C(=O)N2C(C(=O)O)=C(COC(N)=O)CS[C@H]12)c1ccco1` [CEFUROXIME], the fraction unbound in series [1] is 0.67 to 0.685. In the case of `NC(N)=Nc1nc(CSCCC(N)=NS(N)(=O)=O)cs1` [FAMOTIDINE], the fraction unbound at 4.5 h in series [3] is 0.956. Moreover, the values for the fraction unbound in series [1] and in series [2] were 0.8 and 0.749, respectively. `CN(C)CCCN1c2ccccc2CCc2ccccc21` [IMIPRAMINE]: the fraction unbound in series [1] is 0.074 to 0.099; in series [2] it was 0.151. `NNC(=O)c1ccncc1` [ISONIAZID]: the fraction unbound at 0.25 h in series [4] is 0.932. Besides, the fraction unbound in series [1] is 1; in series [2], 0.891. Take `CN1C(C(=O)Nc2ccccn2)=C(O)c2sc(Cl)cc2S1(=O)=O` [LORNOXICAM]: in series [3], the fraction unbound at 4.5 h was 0.02.

For `Cc1cnc(NC(=O)C2=C(O)c3ccccc3S(=O)(=O)N2C)s1` [MELOXICAM], the fraction unbound at 4.5 h in series [3] was 0.033. Moreover, the fraction unbound in series [2] is 0.001. Turning to `Cc1ncc([N+](=O)[O-])n1CCO` [METRONIDAZOLE], the fraction unbound in series [1] was 0.89 to 0.9.

As for `O=C1CN=C(c2ccccc2)c2cc([N+](=O)[O-])ccc2N1` [NITRAZEPAM], the fraction unbound in series [2] is 0.233. As for `CNC(=O)Oc1ccc2c(c1)[C@]1(C)CCN(C)[C@@H]1N2C` [PHYSOSTIGMINE], the fraction unbound at 4.5 h in series [3] was 0.903. Moreover, in series [2], the fraction unbound is 0.8.

For the molecule `CN1C(C(=O)Nc2ccccn2)=C(O)c2ccccc2S1(=O)=O` [PIROXICAM], the fraction unbound in series [1] was 0.01. Take `CCN(CC)CCOC(=O)c1ccc(N)cc1` [PROCAINE]: the fraction unbound at 0.25 h in series [4] is 0.64. Besides, the fraction unbound in series [1] was 0.94. As for `CC(C)NCC(O)COc1cccc2ccccc12` (stereo not drawn) [PROPRANOLOL], the fraction unbound in series [2] is 0.375. For `CN1C(C(=O)Nc2ccccn2)=C(O)c2sccc2S1(=O)=O` [TENOXICAM], the fraction unbound at 4.5 h in series [3] is 0.032. Regarding `COc1cc(Cc2cnc(N)nc2N)cc(OC)c1OC` [TRIMETHOPRIM], the fraction unbound at 4.5 h in series [3] was 0.969. Besides, the fraction unbound in series [1] is 0.585 to 0.625; in series [2], 0.627.
